Data published in article PMC2248166, “Quantitative peptide binding motifs for 19 human and mouse MHC class I molecules derived using positional scanning combinatorial peptide libraries” (Immunome Research, 2008).

What was measured:
[1] = biological target: HLA B*1503 (Homo sapiens, UniProt P01889, A329T/A93T/A95T/C349S/D201E/D98Y/E187L/E204Q/K202T/N87E/Q94N/R155S/R180L/S121R/S35A/V306I/V36M/Y140S/Y91S); experiment: biochemical; type: binding
[2] = biological target: HLA B*5301 (Homo sapiens, UniProt P01889, A329T/A93T/A95T/C349S/D201E/D98Y/E176V/E187L/E204Q/E69T/G107R/I218V/K202T/L105A/L119I/N104I/Q94N/R106L/R155S/R180L/S101N/S121R/S35A/S48A/T118I/V127L/V306I/V36M/Y140S/Y91F); type: binding
[3] = biological target: HLA A*3001 (Homo sapiens, UniProt P04439, D140H/D185E/E176W/F33S/G80R/H175R/K168Q/R138E/R41S); experiment: biochemical; type: binding
[4] = biological target: HLA B*5802 (Homo sapiens, UniProt P01889, A329T/C349S/D201E/D98Y/E176V/E187L/E204Q/E69T/G107R/I218V/I90N/K202T/L105A/N104I/N87E/Q89R/Q94S/R106L/R155S/R180L/R86G/S101N/S121W/S35A/S48A/V127L/V306I/V36M/Y140S/Y91M); type: binding
[5] = biological target: H-2 D^d (Mus musculus, UniProt P01900); type: binding
[6] = biological target: HLA B*1501 (Homo sapiens, UniProt P01889, A329T/A93T/A95T/C349S/D201E/D98Y/E187L/E204Q/E69M/E70A/K202T/N87E/Q94N/R155S/R180W/S121R/S35A/S48A/V306I/V36M/Y140S/Y91S); experiment: biochemical; type: binding
[7] = biological target: HLA B*5401 (Homo sapiens, UniProt P01889, A329T/C349S/D138N/D201E/E176V/E187T/E204Q/E69G/I76V/K202T/L119W/R155S/R180L/S121T/S35A/S48A/V127L/V306I/V36M/Y140L); type: binding
[8] = biological target: HLA B*3501 (Homo sapiens, UniProt P01889, A329T/A93T/A95T/C349S/D201E/D98Y/E176V/E187L/E204Q/E69T/I218V/K202T/L119I/Q94N/R155S/R180L/S121R/S35A/S48A/T118I/V127L/V306I/V36M/Y140S/Y91F); type: binding
[9] = biological target: HLA B*5801 (Homo sapiens, UniProt P01889, A329T/C349S/D201E/D98Y/E176V/E187L/E204Q/E69T/G107R/I218V/I90N/K202T/L105A/L119I/N104I/N87E/Q89R/Q94S/R106L/R155S/R180L/R86G/S101N/S121R/S35A/S48A/T118I/V127L/V306I/V36M/Y140S/Y91M); type: binding
[10] = biological target: HLA B*5101 (Homo sapiens, UniProt P01889, A329T/A93T/A95T/C349S/D138N/D201E/D98Y/E187L/E204Q/E69T/G107R/I218V/K202T/L105A/L119W/N104I/Q94N/R106L/R155S/R180L/S101N/S121T/S35A/S48A/V306I/V36M/Y195H/Y91F); type: binding
[11] = biological target: HLA B*2705 (Homo sapiens, UniProt P01889, D138H/D201E/E176V/E204Q/G107R/H137Y/K202T/N104T/N87E/Q56L/Q94K/R106L/R155S/R180L/S101D/S121N/S48T/Y140D/Y33H/Y91C); type: binding; conditions: positional scanning combinatorial 9-mer library; normalized to 1.0 for the best residue at each position
[12] = biological target: H-2 K^k (Mus musculus, UniProt P04223); type: binding
[13] = biological target: HLA B*0702 (Homo sapiens, UniProt P01889); type: binding; conditions: positional scanning combinatorial 9-mer library; normalized to 1.0 for the best residue at each position
[14] = biological target: HLA A*0201 (Homo sapiens, UniProt P04439, D140Y/D185E/D98H/E176V/E277Q/G131W/G231S/I119V/I121R/I166T/I218V/L300P/L318F/N151K/N90K/P208A/P217A/Q86G/Q94H/R138H/R169H/T345S); conditions: positional scanning combinatorial 9-mer library; normalized to 1.0 for the best residue at each position
[15] = biological target: HLA B*0801 (Homo sapiens, UniProt P01889, A93T/A95T/D138N/E176V/E187T/K202T/Q94N/R180D/S35A/V36M/Y33D/Y91F); experiment: biochemical; type: binding
[16] = biological target: HLA A*3201 (Homo sapiens, UniProt P04439, A270S/D101S/D185E/E176V/E277Q/F133L/G103R/G107R/G231S/H175R/I121M/I218V/I322F/K168Q/L105A/L300P/L318F/M331R/P208A/P217A/Q94H/R106L/R138Q/S129P/T104I/T323A/T345S/V100E/V321M/V358M); experiment: biochemical; type: binding
[17] = biological target: H-2 D^b (Mus musculus, UniProt P01899); type: binding
[18] = biological target: HLA A*6802 (Homo sapiens, UniProt P04439, A269V/D140Y/D185E/E176V/E277Q/E87N/F33Y/G231S/I121R/I166T/I218V/L180W/L300P/L318F/N151K/P208A/P217A/Q86R/R138H/R169H/S129P/T345S/V36M); type: binding

Sequence of H-2 K^k (P01887 21-119): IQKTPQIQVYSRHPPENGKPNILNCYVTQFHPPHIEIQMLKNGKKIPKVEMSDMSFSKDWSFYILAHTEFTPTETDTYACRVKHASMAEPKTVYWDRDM
Sequence of H-2 K^k (P04223 22-369): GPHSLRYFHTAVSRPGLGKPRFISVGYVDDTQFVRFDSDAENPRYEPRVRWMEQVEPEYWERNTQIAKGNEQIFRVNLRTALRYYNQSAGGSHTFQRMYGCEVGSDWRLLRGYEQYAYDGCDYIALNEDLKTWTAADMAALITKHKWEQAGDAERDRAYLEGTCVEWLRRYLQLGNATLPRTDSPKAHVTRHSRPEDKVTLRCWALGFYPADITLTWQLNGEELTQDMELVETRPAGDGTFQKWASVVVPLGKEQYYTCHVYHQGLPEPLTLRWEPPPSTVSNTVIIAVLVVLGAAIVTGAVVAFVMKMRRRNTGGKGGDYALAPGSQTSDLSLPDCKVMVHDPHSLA
Sequence of H-2 D^b (P01887 21-119): as the sequence (P01887 21-119) above
Sequence of H-2 D^b (P01899 25-362): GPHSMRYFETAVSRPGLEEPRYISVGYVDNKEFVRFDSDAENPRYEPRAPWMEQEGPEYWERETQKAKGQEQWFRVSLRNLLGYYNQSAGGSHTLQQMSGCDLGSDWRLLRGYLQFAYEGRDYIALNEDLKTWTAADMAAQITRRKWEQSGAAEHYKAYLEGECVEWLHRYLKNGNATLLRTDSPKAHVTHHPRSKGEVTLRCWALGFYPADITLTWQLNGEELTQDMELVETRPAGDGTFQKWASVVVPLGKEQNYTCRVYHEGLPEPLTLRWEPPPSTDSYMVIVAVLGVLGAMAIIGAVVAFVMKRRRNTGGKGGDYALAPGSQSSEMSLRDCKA
Sequence of H-2 D^d (P01900 whole entry, looked up): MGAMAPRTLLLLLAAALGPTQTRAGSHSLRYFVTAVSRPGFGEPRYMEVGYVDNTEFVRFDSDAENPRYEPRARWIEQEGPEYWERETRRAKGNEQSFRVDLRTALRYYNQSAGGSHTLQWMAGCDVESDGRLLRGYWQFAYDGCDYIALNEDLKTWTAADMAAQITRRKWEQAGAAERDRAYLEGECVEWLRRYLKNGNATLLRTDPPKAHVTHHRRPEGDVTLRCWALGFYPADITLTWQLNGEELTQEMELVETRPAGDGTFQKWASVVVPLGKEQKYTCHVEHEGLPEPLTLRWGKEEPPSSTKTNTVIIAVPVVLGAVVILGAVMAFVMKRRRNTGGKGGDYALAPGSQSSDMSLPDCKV

Sequence	Normalized average relative binding affinity (ARB), HLA B*1503 [1]	Normalized average relative binding affinity (ARB), HLA B*5301 [2]	Normalized average relative binding affinity (ARB), HLA A*3001 [3]	Normalized average relative binding affinity (ARB), HLA B*5802 [4]	Normalized average relative binding affinity (ARB), H-2 Dd [5]	Normalized average relative binding affinity (ARB), HLA B*1501 [6]	Normalized average relative binding affinity (ARB), HLA B*5401 [7]	Normalized average relative binding affinity (ARB), HLA B*3501 [8]	Normalized average relative binding affinity (ARB), HLA B*5801 [9]	Normalized average relative binding affinity (ARB), HLA B*5101 [10]	Normalized average relative binding affinity (ARB), HLA B*2705 [11]	Normalized average relative binding affinity (ARB), H-2 Kk [12]	Normalized average relative binding affinity (ARB), HLA B*0702 [13]	Normalized average relative binding affinity (ARB), HLA A*0201 [14]	Normalized average relative binding affinity (ARB), HLA B*0801 [15]	Normalized average relative binding affinity (ARB), HLA A*3201 [16]	Normalized average relative binding affinity (ARB), H-2 Db [17]	Normalized average relative binding affinity (ARB), HLA A*6802 [18]
MXXXXXXXX [3064.0011]	0.40	0.26	0.37	0.21	0.75	0.89	1.0	0.90	0.70	0.32	0.44	0.78	0.56	0.25	0.79	0.76	0.18	0.75
FXXXXXXXX [3064.0005]	1.0	0.14	0.035	0.081	0.34	0.59	0.74	0.50	0.34	0.25	0.60	1.0	0.21	1.0	0.57	0.090	1.0	0.53
XTXXXXXXX [3064.0037]	0.026	0.022	0.77	0.79	0.019	0.29	0.028	0.042	0.71	0.042	0.0033	0.0085	0.014	0.038	0.038	1.0	0.22	0.63
XWXXXXXXX [3064.0039]	0.0038	0.0054	0.26	0.098	0.061	0.027	0.0040	0.015	0.0033	0.050	0.0022	0.0069	0.0052	0.0024	0.024	0.034	0.10	0.022
PXXXXXXXX [3064.0013]	0.018	0.0038	0.0059	0.059	0.095	0.059	0.0097	0.023	0.030	0.037	0.022	0.052	0.029	0.0032	0.012	0.055	0.030	0.0050
XKXXXXXXX [3064.0029]	0.29	0.0053	0.026	0.045	0.093	0.0091	0.0038	0.0078	0.014	0.022	0.0076	0.0031	0.0028	0.012	0.097	0.0079	0.052	0.011
